“And” between values parts separate entries of the source, which are not always exact repeats. Identical values can stand only once. Inconclusive results and toxic doses are left out. The calls were made as follows: active = survival T/C of 150% or more; inactive = T/C below 125% in these data. Peptide text beside a SMILES is read from it.
Tested on: P388 leukemia ip, CD2F1 mice, survival T/C
Assay: NCI In Vivo Anticancer Drug Screen. Data for tumor model P388 Leukemia (intraperitoneal) in CD2F1 (CDF1) mice
Conditions: endpoint: median survival time, higher = longer survival
How it was run: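 Mice carrying the transplanted tumor received test compound or vehicle. Survival was recorded in each group, and the value is the treated-group measurement divided by that of the vehicle-treated control group.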

[1] = dose: 100.0 mg/kg/injection, schedule: Q01DX009 (ip), vehicle: saline with Tween-80
[2] = dose: 200.0 mg/kg/injection, schedule: Q01DX009 (ip), vehicle: saline with Tween-80
[3] = dose: 50.0 mg/kg/injection, schedule: Q01DX009 (ip), vehicle: saline with Tween-80
[4] = dose: 100.0 mg/kg/injection, schedule: Q01DX001 (ip), vehicle: saline with Tween-80
[5] = dose: 200.0 mg/kg/injection, schedule: Q01DX001 (ip), vehicle: saline with Tween-80
[6] = dose: 50.0 mg/kg/injection, schedule: Q01DX005 (ip), vehicle: saline with Tween-80
[7] = dose: 100.0 mg/kg/injection, schedule: Q01DX005 (ip), vehicle: saline with Tween-80
[8] = dose: 200.0 mg/kg/injection, schedule: Q01DX005 (ip), vehicle: saline with Tween-80

Measured: T/C

O=C1CCC(C(=O)O)C(C(=O)O)C1 (stereo not given)
inactive: dose: 50.0 mg/kg/injection, schedule: Q01DX001 (ip), vehicle: saline 107 % of control | dose: 100.0 mg/kg/injection, schedule: Q01DX001 (ip), vehicle: saline 100 % of control | dose: 200.0 mg/kg/injection, schedule: Q01DX001 (ip), vehicle: saline 101 % of control | dose: 400.0 mg/kg/injection, schedule: Q01DX001 (ip), vehicle: saline 107 % of control

CCOC(=O)NCCCl
inactive: dose: 5.0 mg/kg/injection, schedule: Q01DX009 (ip), vehicle: saline with Tween-80 104 % of control | dose: 10.0 mg/kg/injection, schedule: Q01DX009 (ip), vehicle: saline with Tween-80 107 % of control | dose: 20.0 mg/kg/injection, schedule: Q01DX009 (ip), vehicle: saline with Tween-80 101 % of control | dose: 50.0 mg/kg/injection, schedule: Q01DX008 (ip), vehicle: saline 95 % of control | dose: 100.0 mg/kg/injection, schedule: Q01DX008 (ip), vehicle: saline 98 % of control | dose: 200.0 mg/kg/injection, schedule: Q01DX008 (ip), vehicle: saline 107 % of control | dose: 400.0 mg/kg/injection, schedule: Q01DX008 (ip), vehicle: saline 101 % of control

N#Cc1c(-c2ccccc2)c(-c2ccccc2)nn(CCC(=O)O)c1=O
inactive: dose: 25.0 mg/kg/injection, schedule: Q04DX002 (ip), vehicle: distilled water + Tween-80 101 % of control | dose: 50.0 mg/kg/injection, schedule: Q04DX002 (ip), vehicle: distilled water + Tween-80 102 % of control | dose: 100.0 mg/kg/injection, schedule: Q04DX002 (ip), vehicle: distilled water + Tween-80 108 % of control

Nc1n[nH]c(=S)n1-c1ccc(Cl)cc1
inactive: [1] 115 % of control | [2] 120 % of control | dose: 400.0 mg/kg/injection, schedule: Q01DX009 (ip), vehicle: saline with Tween-80 120 % of control

CCC(C)C1NC(=O)C(NC(=O)c2c3[nH]c4c(C(=O)NC5C(=O)NC(C(C)CC)C(=O)N6CCCC6C(=O)N(C)CC(=O)N(C)C(C(C)C)C(=O)OC5C)ccc(C)c4oc-3c(C)c(=O)c2=O)C(C)OC(=O)C(C(C)C)N(C)C(=O)CN(C)C(=O)C2CCCN2C1=O (stereo not given)
inactive: dose: 0.05 mg/kg/injection, schedule: Q01DX009 (ip), vehicle: water 99 % of control | dose: 0.1 mg/kg/injection, schedule: Q01DX009 (ip), vehicle: water 104 % of control | dose: 0.2 mg/kg/injection, schedule: Q01DX009 (ip), vehicle: water 95 % of control | dose: 0.4 mg/kg/injection, schedule: Q01DX009 (ip), vehicle: water 100 % of control and 104 % of control | dose: 0.8 mg/kg/injection, schedule: Q01DX009 (ip), vehicle: water 101 % of control and 96 % of control | dose: 1.6 mg/kg/injection, schedule: Q01DX009 (ip), vehicle: water 102 % of control and 110 % of control | dose: 3.2 mg/kg/injection, schedule: Q01DX009 (ip), vehicle: water 110 % of control | dose: 6.4 mg/kg/injection, schedule: Q01DX009 (ip), vehicle: water 123 % of control

CC(C)c1cccc(C(C)C)c1NC(=O)N1CCCCC1
inactive: dose: 60.0 mg/kg/injection, schedule: Q01DX005 (ip), vehicle: saline with Tween-80 99 % of control | dose: 120.0 mg/kg/injection, schedule: Q01DX005 (ip), vehicle: saline with Tween-80 93 % of control | dose: 240.0 mg/kg/injection, schedule: Q01DX005 (ip), vehicle: saline with Tween-80 100 % of control

CC(C)(C)N=C(CCC(C#N)(C#N)CCC(=NC(C)(C)C)Nc1ccccc1C#N)Nc1ccccc1C#N
inactive: [3] 95 % of control | [1] 92 % of control | [2] 101 % of control

CCOC(=O)Cn1cnc2cc(Cl)c([N+](=O)[O-])cc2c1=O
inactive: dose: 100.0 mg/kg/injection, schedule: Q04DX003 (ip), vehicle: Klucel (hydroxypropylcellulose) (HPC) 100 % of control and 110 % of control | dose: 200.0 mg/kg/injection, schedule: Q04DX003 (ip), vehicle: Klucel (hydroxypropylcellulose) (HPC) 101 % of control and 121 % of control | dose: 400.0 mg/kg/injection, schedule: Q04DX003 (ip), vehicle: Klucel (hydroxypropylcellulose) (HPC) 100 % of control | dose: 600.0 mg/kg/injection, schedule: Q04DX003 (ip), vehicle: Klucel (hydroxypropylcellulose) (HPC) 107 % of control

COc1ccc2c(c1)CCC1C2CCC2(C)C1CCC2(O)CCOS(=O)(=O)c1ccc(C)cc1 (stereo not given)
inactive: dose: 50.0 mg/kg/injection, schedule: Q01DX009 (ip), vehicle: Klucel (hydroxypropylcellulose) (HPC) 97 % of control | [3] 100 % of control | dose: 100.0 mg/kg/injection, schedule: Q01DX009 (ip), vehicle: Klucel (hydroxypropylcellulose) (HPC) 97 % of control | [1] 99 % of control | dose: 200.0 mg/kg/injection, schedule: Q01DX009 (ip), vehicle: Klucel (hydroxypropylcellulose) (HPC) 94 % of control | [2] 104 % of control

Cc1c(N)c(=O)oc2cc3occc(=O)c3cc12
inactive: [4] 91 % of control | [5] 89 % of control | dose: 400.0 mg/kg/injection, schedule: Q01DX001 (ip), vehicle: saline with Tween-80 92 % of control

Cc1ccc(S(=O)CC#CC#CCS(=O)c2ccc(C)cc2)cc1 (stereo not given)
inactive: dose: 50.0 mg/kg/injection, schedule: Q01DX001 (ip), vehicle: saline with Tween-80 93 % of control | [4] 97 % of control | [5] 101 % of control

O=C1NC(=O)C(=Cc2c(Cl)cccc2Cl)C(=O)N1
inactive: dose: 12.5 mg/kg/injection, schedule: Q01DX009 (ip), vehicle: saline with Tween-80 116 % of control | dose: 25.0 mg/kg/injection, schedule: Q01DX009 (ip), vehicle: saline with Tween-80 122 % of control | [3] 122 % of control

CC(C)C(NC(=O)C(N)CCCN=C(N)N)C(=O)O (stereo not drawn) (H-Arg-Val-OH; configuration not given here)
inactive: [6] 91 % of control | [7] 100 % of control | [8] 100 % of control

CCCCCCCCCCCC#CC(=O)O
inactive: [3] 110 % of control | [1] 102 % of control | [2] 105 % of control

CC(=O)Nc1cccc(N(CCOS(C)(=O)=O)CCOS(C)(=O)=O)c1
active: dose: 20.0 mg/kg/injection, schedule: Q04DX003 (ip), vehicle: saline with Tween-80 172 % of control

O=C1Oc2nc3ccccc3cc2/C1=C/c1ccccc1
inactive: dose: 100.0 mg/kg/injection, schedule: Q04DX002 (ip), vehicle: saline with Tween-80 89 % of control | dose: 200.0 mg/kg/injection, schedule: Q04DX002 (ip), vehicle: saline with Tween-80 92 % of control | dose: 400.0 mg/kg/injection, schedule: Q04DX002 (ip), vehicle: saline with Tween-80 99 % of control

O=C1CN=C(c2ccccc2)c2cc(Cl)ccc2N1CC1CC1
inactive: dose: 100.0 mg/kg/injection, schedule: Q04DX003 (ip), vehicle: saline 100 % of control | dose: 200.0 mg/kg/injection, schedule: Q04DX003 (ip), vehicle: saline 94 % of control | dose: 400.0 mg/kg/injection, schedule: Q04DX003 (ip), vehicle: saline 101 % of control

CCOC(=O)C1=C(C)O/C(=C/c2cccc(Cl)c2)C1=O
inactive: [6] 117 % of control and 119 % of control | [7] 121 % of control and 123 % of control | [8] 113 % of control

C=CCOc1cc2c(cc1C(CC)c1ccc(OC)cc1)OCO2 (stereo not given)
inactive: dose: 50.0 mg/kg/injection, schedule: Q01DX005 (ip), vehicle: Klucel (hydroxypropylcellulose) (HPC) 101 % of control | dose: 100.0 mg/kg/injection, schedule: Q01DX005 (ip), vehicle: Klucel (hydroxypropylcellulose) (HPC) 103 % of control | dose: 200.0 mg/kg/injection, schedule: Q01DX005 (ip), vehicle: Klucel (hydroxypropylcellulose) (HPC) 104 % of control

Cc1cnc(N)c(S(=O)(=O)O)c1
inactive: dose: 25.0 mg/kg/injection, schedule: Q01DX009 (ip), vehicle: saline 86 % of control | dose: 50.0 mg/kg/injection, schedule: Q01DX009 (ip), vehicle: saline 88 % of control

O=c1[nH]c2cc([N+](=O)[O-])ccc2nc1/C=C(\O)c1cccc2ccccc12
inactive: dose: 30.0 mg/kg/injection, schedule: Q01DX005 (ip), vehicle: Klucel + Tween-80 91 % of control | dose: 60.0 mg/kg/injection, schedule: Q01DX005 (ip), vehicle: Klucel + Tween-80 87 % of control and 94 % of control | dose: 120.0 mg/kg/injection, schedule: Q01DX005 (ip), vehicle: Klucel + Tween-80 86 % of control | dose: 240.0 mg/kg/injection, schedule: Q01DX005 (ip), vehicle: Klucel + Tween-80 88 % of control

From PubChem BioAssay AID330 (DTP/NCI, 2004)
